PMC8607110, “Pyrazole Derivatives Induce Apoptosis via ROS Generation in the Triple Negative Breast Cancer Cells, MDA-MB-468” (Asian Pacific Journal of Cancer Prevention : APJCP, 2021)
Where two headings read alike, the source gives them in different places.

Experiments:
5637 cells = system: 5637 cells; set-up: method as in Tessmann et al., 2017; conditions: human bladder cancer cell line; ref Tessmann et al., 2017; cited from earlier work
MDA-MB-468 cells = experiment: MTT cell viability assay, MDA-MB-468; assay type: cell-based, human; conditions: Homo sapiens, mean ± SD of triplicate
Protocol: (§1) The MDA-MB-468 cells were maintained in DMEM/Ham’s F12 supplemented with L-glutamine, with 10% fetal bovine serum and 1% penicillin/streptomycin. The AGO1522 cell line was cultured in DMEM/Low Glucose, with 10% fetal bovine serum and 1% penicillin/ streptomycin. Cells were incubated at 37°C, 5% CO2 and every 2-3 days at the confluency of 80%, the cells were harvested from the culture flask by Trypsin-EDTA.
(§2) Cell viability was measured with the MTT assay. The reduction of the tetrazolium salt, to a blue formazan crystal is facilitated by mitochondrial dehydrogenase and NADPH-dependent cellular oxidoreductase enzymes (Abel and Baird, 2018). In the assay, an aliquot of 7.5 × 10^3 cells was seeded on the 96-well plates and allowed to attach overnight. Then, 11 Pyrazole derivatives (as shown in Table 1 and Figure S1) were added to the desired well with the final concentration of 3, 6.25, 12.5, 25, 50, 100 μM. After pre-treating cells for 24 and 48h, MTT (5 mg/ml in PBS) was added to each well and the cells were incubated for another 4 h at 37°C. In order to dissolve blue-colored formazan crystals, the entire medium was aspirated after the incubation period, and DMSO was added to the wells. An ELISA plate reader (BioTek Instruments, Inc., USA) was used to quantify the formazan concentration (with the wavelengths of 570 nm). All of the experiments were carried out on three replicates to ensure the measurement repeatability and the IC50 values were also calculated using GraphPad Prism software.

AGO1522 cells = experiment: MTT cell viability assay, AGO1522 normal fibroblasts; assay type: cell-based; conditions: Homo sapiens, Fibroblast, mean ± SD of triplicate
Protocol: as §1, §2

[1] = MDA-MB-468, 24 h, 24 h treatment, read-out: IC50, MDA-MB-468, 24 hours
[2] = MDA-MB-468, 48 h, 48 h treatment, read-out: IC50, MDA-MB-468, 48 hours
[3] = 24 h treatment, read-out: IC50, AGO1522, 24 hours
[4] = 48 h treatment, read-out: IC50, AGO1522, 48 hours

SMILES | cell cycle progression of 5637 cells (5637 cells) | IC50 (MDA-MB-468 cells; [1]) [µM] | IC50 (MDA-MB-468 cells; [2]) [µM] | IC50 (AGO1522 cells; [3]) [µM] | IC50 (AGO1522 cells; [4]) [µM]
NC(=S)N1N=C(c2ccccc2)CC1c1ccccc1 (stereo not shown) [2a, 1-thiocarbamoyl-3,5-diphenyl-4,5-dihydro-1H-Pyrazole] | inhibited cell cycle progression |  |  |  | 
NC(=S)N1N=C(c2ccccc2)CC1c1ccc(Cl)cc1 (stereo not shown) [2c, 1-thiocarbamoyl-5-(4-chlorophenyl)-3-phenyl-4,5-dihydro-1H-Pyrazole] | inhibited cell cycle progression |  |  |  | 
COc1cc(C2CC(c3ccccc3)=NN2c2ccccc2)cc(OC)c1OC (stereo not shown) [3a, 1,3-diphenyl-5-(3,4,5-trimethoxyphenyl)-4,5-dihydro-1H-Pyrazole] |  | 25 | 6.41 ± 1.1 | 28.8 ± 0.95 | 19.9 ± 0.83
COc1cc(C2CC(c3ccccc3)=NN2c2ccc(C)cc2)cc(OC)c1OC (stereo not shown) [3b, 3-phenyl-1-(p-tolyl)-5-(3,4,5-trimethoxyphenyl)-4,5-dihydro-1H-Pyrazole] |  | 19.2 ± 0.97 | 9.29 ± 0.67 | 29.8 ± 1.02 | 19.8 ± 0.96
COc1cc(C2CC(c3ccccc3)=NN2c2ccc(Cl)cc2)cc(OC)c1OC (stereo not shown) [3c, 1-(4-chlorophenyl)-3-phenyl-5-(3,4,5-trimethoxyphenyl)-4,5-dihydro-1H-Pyrazole] |  | 58.6 ± 0.82 | 19.9 ± 1.12 | 24.1 ± 0.65 | 17.7 ± 0.93
COc1cc(C2CC(c3ccccc3)=NN2c2ccc(F)cc2)cc(OC)c1OC (stereo not shown) [3d, 1-(4-fluorophenyl)-3-phenyl-5-(3,4,5-trimethoxyphenyl)-4,5-dihydro-1H-Pyrazole] |  | 32.6 ± 1.22 | 15.2 ± 0.9 | 42.1 ± 1.27 | 35.6 ± 1.32
COc1ccc(C2=NN(c3ccccc3)C(c3cc(OC)c(OC)c(OC)c3)C2)cc1 (stereo not shown) [3e, 3-(4-methoxyphenyl)-1-phenyl-5-(3,4,5-trimethoxyphenyl)-4,5-dihydro-1H-Pyrazole] |  | 21.3 ± 0.85 | 10.8 ± 0.93 | 42.8 ± 0.98 | 19.9 ± 0.99
